Assay results from US5364861A, “Optical isomers of 7-[3-(1,1-dialkylmethyl-1-amino-1-pyrrolidinyl]-quinolones and naphthyridones as antibacterial agents” (Warner-Lambert Company, priority 1993, dated 1994).
≈ marks a conversion by molar mass, not a printed value. Structures can show the parent of a compound that is named as a salt. Where two headings read alike, the source gives them in different places.

Tests used:
Ent. cloacae MA2646 = assay: in vitro antibacterial activity, microtitration dilution (MIC), Ent. cloacae MA2646; format: cell-based; settings: Enterobacter cloacae, read-out: minimum inhibiting concentration (MIC)
Text: (§1) The in vitro antibacterial activity is obtained when tested by the microtitration dilution method as described in Heifetz, et al., Antimicr. Agents & Chemother. 1974;6:124, which is incorporated herein by reference.
(§2) By use of the above methods, the following minimum inhibiting concentration values (MICs in μg/ml), PD50 's in mg/kg, no effect phototoxicity dose in mg/kg and the cytotoxicity IC50 in μg/mL were obtained for representative enantiomers of the invention and compounds of the prior art as shown in the table.

Esch. coli Vogel [1] = assay: in vitro antibacterial activity, microtitration dilution (MIC), Esch. coli Vogel; format: cell-based; settings: Escherichia coli, read-out: minimum inhibiting concentration (MIC)
Text: as §1, §2

Klebs. pneumoniae MGH-2 = assay: in vitro antibacterial activity, microtitration dilution (MIC), Klebs. pneumoniae MGH-2; format: cell-based; settings: Klebsiella pneumoniae, MGH2, read-out: minimum inhibiting concentration (MIC)
Text: as §1, §2

Prot. rettgeri M 1771 = assay: in vitro antibacterial activity, microtitration dilution (MIC), Prot. rettgeri M 1771; format: cell-based; settings: Providencia rettgeri, M1771, read-out: minimum inhibiting concentration (MIC)
Text: as §1, §2

Pseud. aeruginosa UI-18 = assay: in vitro antibacterial activity, microtitration dilution (MIC), Pseud. aeruginosa UI-18; format: cell-based; settings: Pseudomonas aeruginosa, UI18, read-out: minimum inhibiting concentration (MIC)
Text: as §1, §2

Staph. aureus H 228 = assay: in vitro antibacterial activity, microtitration dilution (MIC), Staph. aureus H 228; format: cell-based; settings: Staphylococcus aureus, H228, read-out: minimum inhibiting concentration (MIC)
Text: as §1, §2

Staph. aureus UC-76 = assay: in vitro antibacterial activity, microtitration dilution (MIC), Staph. aureus UC-76; format: cell-based; settings: Staphylococcus aureus, UC76, read-out: minimum inhibiting concentration (MIC)
Text: as §1, §2

Strep. faecalis MGH-2 = assay: in vitro antibacterial activity, microtitration dilution (MIC), Strep. faecalis MGH-2; format: cell-based; settings: Enterococcus faecalis, MGH2, read-out: minimum inhibiting concentration (MIC)
Text: as §1, §2

Strep. pneumoniae SV-1 = assay: in vitro antibacterial activity, microtitration dilution (MIC), Strep. pneumoniae SV-1; format: cell-based; settings: Streptococcus pneumoniae, SV1, read-out: minimum inhibiting concentration (MIC)
Text: as §1, §2

Strep. pyogenes C-203 [2] = assay: in vitro antibacterial activity, microtitration dilution (MIC), Strep. pyogenes C-203; format: cell-based; settings: Streptococcus pyogenes, C203, read-out: minimum inhibiting concentration (MIC)
Text: as §1, §2

Esch. coli Vogel [3] = assay: median protective dose in mice given lethal systemic infection, Esch. coli; format: in vivo; settings: Escherichia coli, single dose at time of challenge, route not given, read-out: median protective dose (PD50)
Experimental: (§3) The in vivo activity is obtained when the compounds are tested according to the procedure of Miller, et al (Proc. Soc. Exp. Biol. Med. 1944;57:261). The median protective dose (PD50) was determined in mice given lethal systemic infections. Single doses of compound were given at time of challenge.
as §2
(§4) The in vivo data as PD50 's are reported below the line of MICs for the same compound.

Strep. pyogenes C-203 [4] = assay: median protective dose in mice given lethal systemic infection, Strep. pyogenes; format: in vivo; settings: Streptococcus pyogenes, C203, Strep. pyogenes, single dose at time of challenge, route not given, read-out: median protective dose (PD50)
Experimental: as §3, §2, §4

[5] = cytotoxicity, colony reduction of hamster V-79 cells; format: cell-based; settings: 3 hours treatment, colonies counted after 5 days, read-out: cytotoxicity IC50 (Cytotox)
Experimental: The cytotoxicity data is obtained using hamster V-79 cells. The cells were suspended in tissue culture medium and grown overnight. Cells were treated with drug for 3 hours, washed free of drug and then replated, and the colonies counted after 5 days. The concentration of drug that reduced colonies by 50% relative to control was recorded.
as §2

SMILES	MIC (Ent. cloacae MA2646) [µg/mL]	MIC (Esch. coli Vogel [1]) [µg/mL]	MIC (Klebs. pneumoniae MGH-2) [µg/mL]	MIC (Prot. rettgeri M 1771) [µg/mL]	MIC (Pseud. aeruginosa UI-18) [µg/mL]	MIC (Staph. aureus H 228) [µg/mL]	MIC (Staph. aureus UC-76) [µg/mL]	MIC (Strep. faecalis MGH-2) [µg/mL]	MIC (Strep. pneumoniae SV-1) [µg/mL]	MIC (Strep. pyogenes C-203 [2]) [µg/mL]	ED50 (Esch. coli Vogel [3]; first line below the MICs) [mg/kg]	ED50 (Esch. coli Vogel [3]; second line below the MICs) [mg/kg]	ED50 (Strep. pyogenes C-203 [4]; first line below the MICs) [mg/kg]	ED50 (Strep. pyogenes C-203 [4]; second line below the MICs) [mg/kg]	CC50 at 3 h [5] [µg/mL]
CC(C)(N)[C@H]1CCN(c2c(F)cc3c(=O)c(C(=O)O)cn(C4CC4)c3c2Cl)C1 [Example 1, (S)-7-[3-(1-Amino-1-methylethyl)-1-pyrrolidinyl]-8-chloro-1-cyclopropyl-6-fluoro-1,4-dihydro-4-oxo-3-quinolinecarboxylic acid, monohydrochloride]	0.1	0.1	0.2	0.4	1.6	0.025	0.013	0.05	0.013	0.025	27	4	13	4	–
CNC(C)(C)[C@@H]1CCN(c2c(F)cc3c(=O)c(C(=O)O)cn(C4CC4)c3c2Cl)C1 [Example 6, (R)-08-Chloro-1-cyclopropyl-6-fluoro-1,4-dihydro-7-{3-[1-methyl-1-(methylamino)ethyl]-1-pyrrolidinyl}-4-oxo-3-quinolinecarboxylic acid, monohydrochloride]	0.2	0.2	0.4	0.4	3.1	0.013	≤ 0.003	0.025	≤ 0.003	≤ 0.003	11	2	3	0.5	–
COc1c(N2CC[C@@H](C(C)(C)N)C2)c(F)cc2c(=O)c(C(=O)O)cn(C3CC3)c12 [Example 7, (R)-7-[3-(1-Amino-1-methylethyl)-1-pyrrolidinyl]-1-cyclopropyl-6-fluoro-1,4-dihydro-8-methoxy-4-oxo-3-quinolinecarboxylic acid]	0.1 (≈ 0.248 µM)	0.1 (≈ 0.248 µM)	0.2 (≈ 0.496 µM)	0.4 (≈ 0.991 µM)	1.6 (≈ 3.97 µM)	0.013 (≈ 0.0322 µM)	≤ 0.003	0.013 (≈ 0.0322 µM)	≤ 0.003	< 0.003	26	3	3	0.8	18 (≈ 44.6 µM)
COc1c(N2CC[C@H](C(C)(C)N)C2)c(F)cc2c(=O)c(C(=O)O)cn(C3CC3)c12 [Example 8, (S)-7-[3-(1-Amino-1-methylethyl)-1-pyrrolidinyl]-1-cyclopropyl-6-fluoro-1,4-dihydro-8-methoxy-4-oxo-3-quinolinecarboxylic acid]	0.2 (≈ 0.496 µM)	0.2 (≈ 0.496 µM)	0.4 (≈ 0.991 µM)	0.8 (≈ 1.98 µM)	3.1 (≈ 7.68 µM)	0.05 (≈ 0.124 µM)	0.013 (≈ 0.0322 µM)	0.05 (≈ 0.124 µM)	0.025 (≈ 0.062 µM)	0.025 (≈ 0.062 µM)	–	–	–	–	–
CC(C)(N)[C@@H]1CCN(c2cc3c(c(N)c2F)c(=O)c(C(=O)O)cn3C2CC2)C1 [Example 9, (R)-7-[3-(1-Amino-1-methylethyl)-1-pyrrolidinyl]-5-amino-1-cyclopropyl-6-fluoro-1,4-dihydro-4-oxo-3-quinolinecarboxylic acid]	0.4 (≈ 1.03 µM)	0.4 (≈ 1.03 µM)	0.8 (≈ 2.06 µM)	0.8 (≈ 2.06 µM)	3.1 (≈ 7.98 µM)	0.025 (≈ 0.0644 µM)	0.006 (≈ 0.0154 µM)	0.05 (≈ 0.129 µM)	0.006 (≈ 0.0154 µM)	0.006 (≈ 0.0154 µM)	–	–	11	2	13 (≈ 33.5 µM)
Cc1c(F)c(N2CC[C@@H](C(C)(C)N)C2)cc2c1c(=O)c(C(=O)O)cn2-c1ccc(F)cc1F [Example 10, (R)-7-[3-(1-Amino-1-methylethyl)-1-pyrrolidinyl]-1-(2,4-difluorophenyl)-6-fluoro-1,4-dihydro-5-methyl-4-oxo-3-quinolinecarboxylic acid]	0.4 (≈ 0.871 µM)	0.4 (≈ 0.871 µM)	0.8 (≈ 1.74 µM)	1.6 (≈ 3.48 µM)	3.1 (≈ 6.75 µM)	0.1 (≈ 0.218 µM)	0.05 (≈ 0.109 µM)	0.4 (≈ 0.871 µM)	0.4 (≈ 0.871 µM)	0.2 (≈ 0.435 µM)	–	–	–	–	–
Cc1c(F)c(N2CC[C@H](C(C)(C)N)C2)cc2c1c(=O)c(C(=O)O)cn2-c1ccc(F)cc1F [Example 11, S-7-[3-(1-amino-1-methylethyl)-1-pyrrolidinyl]-1-(2,4-difluorophenyl)-6-fluoro-1,4-dihydro-5-methyl-4-oxo-3-quinolinecarboxylic acid]	0.1 (≈ 0.218 µM)	0.1 (≈ 0.218 µM)	0.2 (≈ 0.435 µM)	0.4 (≈ 0.871 µM)	1.6 (≈ 3.48 µM)	0.025 (≈ 0.0544 µM)	0.013 (≈ 0.0283 µM)	0.1 (≈ 0.218 µM)	0.013 (≈ 0.0283 µM)	0.013 (≈ 0.0283 µM)	–	–	–	–	–
CC(C)(N)[C@H]1CCN(c2c(F)cc3c(=O)c(C(=O)O)cn(C4CC4)c3c2F)C1 [Example 12, (S)-7-[3-(1-Amino-1-methylethyl)-1-pyrrolidinyl]-1-cyclopropyl-6,8-difluoro-1,4-dihydro-4-oxo-3-quinolinecarboxylic acid]	0.2 (≈ 0.511 µM)	0.1 (≈ 0.255 µM)	0.2 (≈ 0.511 µM)	0.4 (≈ 1.02 µM)	1.6 (≈ 4.09 µM)	0.025 (≈ 0.0639 µM)	≤ 0.003	0.025 (≈ 0.0639 µM)	0.006 (≈ 0.0153 µM)	0.006 (≈ 0.0153 µM)	–	–	12	0.6	–
